We go through two molecules from patent US20090197957A1, “Methods and compositions for the treatment of pain” (Nuon Therapeutics, Inc., priority 2005, published 2009).

Test [1] has as its system established CIA. The experiment in a line: Treatment of established collagen-induced arthritis (clinical score, paw swelling, histology, relapse). The test is classed as in vivo, DBA/1 mice. Here is the method:
FIG. 2 is a graphical representation of the treatment of established CIA with 3,4-DAA. DBA/1 mice were immunised with type II collagen in CFA and monitored for development of arthritis. On day 1 of arthritis, mice were injected intraperitoneally with 3,4-DAA on a daily basis. Paw thickness was measured with callipers. The clinical scoring system was as follows: 0=normal, 1=slight swelling and/or erythema, and 2=pronounced oedematous swelling. Each limb was graded, giving a maximum score of 8 per mouse. Histological assessment of arthritis was carried out on haematoxylin and eosin stained sections using a scoring system as follows: 0, normal; 1, minimal synovitis without cartilage/bone erosion; 2, synovitis with some marginal erosion but joint architecture maintained; 3, severe synovitis and erosion with loss of normal joint architecture. There were 14 mice/group (data pooled from two separate experiments).
FIG. 5 is a graphical representation of the relapse of arthritis 4 days after cessation of therapy. Mice with established CIA (n=6) were treated with 3,4-DAA (400 mg/kg/day) from days 1 to 5 of arthritis and clinical severity of arthritis was monitored up to day 12. Arthritis is seen to relapse at around day 9.
Type II collagen was purified from bovine cartilage, as described [Williams 2004, Methods Mol. Med. 98:207-216] and solubilized by stirring overnight at 4° C. in acetic acid (0.1M) or Tris buffer (0.05 M Tris, containing 0.2 M NaCl, pH 7.4). 3,4-DAA was synthesised by Angiogen Pharmaceuticals Pty. Ltd. For in vivo studies 3,4-DAA was dissolved at a maximum concentration of 10 mg/ml in 1% sodium bicarbonate by heating for 1 h at 70° C. Upon cooling, an emulsion was formed. For in vitro studies 3,4-DAA was dissolved in dimethyl sulphoxide (DMSO). 3-Hydroxy-anthranilic acid (3-HAA) was purchased from Sigma (Poole, UK) and dissolved in PBS.
Male DBA/1 mice (8-12 weeks old) were immunized intradermally at the base of the tail with bovine type II collagen (200 μg) emulsified in complete Freund's adjuvant (CFA; Difco, West Molesley, UK). Arthritis was monitored clinically using the following scoring system: 0=normal, 1=slight swelling and/or erythema, and 2=pronounced oedematous swelling. Each limb was graded, giving a maximum score of 8 per mouse. In addition, paw-swelling was measured using callipers.
Histopathological assessment of arthritis was carried out in a ‘blinded’ fashion on decalcified haematoxylin and eosin stained sections using a scoring system as follows: 0, normal; 1, minimal synovitis without cartilage/bone erosion; 2, synovitis with some marginal erosion but joint architecture maintained; 3, severe synovitis and erosion with loss of normal joint architecture. This research was approved by the local ethical review process committee and by the Home Office of Great Britain.
The ability of 3,4-DAA to treat established CIA was tested. Mice were immunised with type II collagen in CFA. On day 1 of clinical arthritis (the day that arthritis was first observed) mice were randomly assigned to different treatment groups and given 3,4-DAA (100 mg/kg/day, 200 mg/kg/day or 400 mg/kg/day) or vehicle alone over a 10 day period. […] Significant differences between 3,4-DAA treated and control mice were observed from day 3 until the end of the treatment period (day 10). On day 10 the mice were killed and the first paw to show clinical evidence of arthritis was processed for histology. Joints were examined ‘blindly’ for severity of inflammation and joint erosion.
Therefore, it is clearly of interest to establish what happens in vivo when treatment with 3,4-DAA is stopped. Is there a disease flare and if so, does it occur immediately after cessation of treatment? […] Treatment was then stopped and mice were monitored for a further 7 days.

Test [2] deals with T1, Cyclooxygenase COX-2 (Homo sapiens, UniProt P35354).
T1 construct: host or cells: insect Sf21
T1 sequence (P35354 18-604): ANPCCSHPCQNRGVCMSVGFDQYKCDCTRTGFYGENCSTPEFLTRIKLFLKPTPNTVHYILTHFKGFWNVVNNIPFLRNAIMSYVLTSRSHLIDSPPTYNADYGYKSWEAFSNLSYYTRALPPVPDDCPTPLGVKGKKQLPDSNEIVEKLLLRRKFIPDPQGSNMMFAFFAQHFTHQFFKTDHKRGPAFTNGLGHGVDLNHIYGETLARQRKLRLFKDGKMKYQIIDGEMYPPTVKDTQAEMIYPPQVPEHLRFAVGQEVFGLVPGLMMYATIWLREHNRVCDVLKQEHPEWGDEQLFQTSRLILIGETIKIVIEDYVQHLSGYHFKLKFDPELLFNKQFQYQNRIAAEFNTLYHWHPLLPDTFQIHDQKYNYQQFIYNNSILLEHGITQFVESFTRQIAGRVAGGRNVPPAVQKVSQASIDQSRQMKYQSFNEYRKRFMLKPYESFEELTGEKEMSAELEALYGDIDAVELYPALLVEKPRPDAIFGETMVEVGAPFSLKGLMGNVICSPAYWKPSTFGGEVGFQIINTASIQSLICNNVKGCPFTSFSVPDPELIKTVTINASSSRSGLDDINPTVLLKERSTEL
In words: 118010 Cyclooxygenase COX-2 biochemical assay (EIA quantitation of PGE2). As for the experimental part:
(§1) Methods employed in this study have been adapted from the scientific literature to maximize reliability and reproducibility. […] Assays were performed under conditions described in the accompanying “Methods” section of this report. The literature references for each assay are in the “Literature References” section. If either of these sections were not originally requested with the accompanying report, please contact us at the number below for a printout of either of these report sections.
(§2) Biochemical assay results are presented as the percent inhibition of specific binding or activity throughout the report.

The subject of test [3] is IL-10. In words: Serum IL-10 in mice with established CIA (ELISA). The conditions noted are these: treated for 10 days, 100, 200 or 400 mg/kg/day, listed as 3,4-DAA. The test is classed as in vivo. As for the experimental part:
FIG. 3 is a graphical representation depicting that treatment with 3,4-DAA leads to increased IL-10 levels in vivo. Mice with established CIA were treated with 3,4-DAA or vehicle (n=7) for 10 days (see FIG. 2), then bled. IL-10 in the sera was measured by ELISA.
(ELISA stands for enzyme-linked immunosorbent assay.)

In test [4] the target is Cyclooxygenase COX-1 (Homo sapiens, UniProt P23219). In words: biochemical. As for the experimental part: as §1, §2
Sequence of Cyclooxygenase COX-1 (P23219 24-599): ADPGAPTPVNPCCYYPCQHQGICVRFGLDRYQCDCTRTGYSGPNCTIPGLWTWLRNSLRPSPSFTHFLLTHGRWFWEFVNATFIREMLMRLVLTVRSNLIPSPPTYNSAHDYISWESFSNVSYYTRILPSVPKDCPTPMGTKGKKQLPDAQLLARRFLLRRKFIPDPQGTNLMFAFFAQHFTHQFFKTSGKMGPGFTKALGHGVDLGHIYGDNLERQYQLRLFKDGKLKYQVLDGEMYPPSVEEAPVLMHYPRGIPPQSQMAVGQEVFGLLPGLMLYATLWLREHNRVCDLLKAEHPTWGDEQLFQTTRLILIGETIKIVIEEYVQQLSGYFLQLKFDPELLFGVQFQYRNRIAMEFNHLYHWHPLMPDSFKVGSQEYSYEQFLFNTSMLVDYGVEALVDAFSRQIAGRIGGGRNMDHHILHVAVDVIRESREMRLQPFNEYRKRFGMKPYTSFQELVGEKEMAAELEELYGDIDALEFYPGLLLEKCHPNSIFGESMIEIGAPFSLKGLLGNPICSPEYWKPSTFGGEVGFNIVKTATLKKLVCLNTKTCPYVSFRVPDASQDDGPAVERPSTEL
The mark [5] stands for this setting: established CIA, 100, 200 or 400 mg/kg/day over 10 days.
Where [6] appears, read: up to 10 days therapy, 3,4-DAA 200 mg/kg/day, dexamethasone 0.5 mg/kg/2 days.

By inhibition is commonly meant the relative decrease from the control value, in per cent.

SMILES strings stand for the structures. Entries after “also recorded” stand apart in the source; their conditions may differ.

For `Nc1c(O)cccc1C(=O)O` [3-Hydroxyanthranilic acid], the “action on inflammation in CIA” value in test [1] (administered therapeutically at doses of up to 400 mg/kg/day) is given as “no action”.
For `COc1ccc(/C=C/C(=O)Nc2ccccc2C(=O)O)cc1OC` [Tranilast, 2-[[3-(3,4-dimethoxyphenyl)-1-oxo-2-propenyl]amino]benzoic acid], the “effect on the activity of the COX-2 enzyme” value in test [2] is “no effect”. Moreover, the inhibition at 10 µM in test [2] (10 μM, n=2) was determined as 0%. In addition, the “arthritis severity during the treatment period” value in test [1] (400 mg/kg/day from day 1 to day 5 of arthritis) is “dramatic reduction”. In test [1] (400 mg/kg/day from days 1 to 5, monitored up to day 12), the “day of arthritis on which exacerbation/relapse was observed after treatment stopped on day 5” value came out at 9 days. In test [1] (setting [5]), the clinical scores result is given as “dose-dependent reduction” and the paw-swelling result was “dose-dependent reduction”. For the same molecule, the “histological severity of arthritis” value in test [1] (established CIA, 100, 200 or 400 mg/kg/day, day 10) is listed as “dose-dependent reduction”. For the same molecule, in test [1] (setting [6]), the clinical score result is “significantly reduced” and the paw swelling entry was “significantly reduced”. The “circulating IL-10 levels (sera)” value in test [3] is recorded as “dose-dependent increase; also recorded: increased”. Besides, in test [4], the “effect on the activity of the COX-1 enzyme” value is “no effect” and the inhibition at 10 µM was -2%.
